One block for each molecule: values may come before it.
Columns and labels:
[1] = test system: Z252: meticillin-resistant strain, homogeneous, low level of resistance; assay: Growth of S. aureus strains streaked on CHROMagar Staph aureus medium with antibiotic: low-level resistant strain; assay type: cell-based, Staphylococcus aureus; design: key: + = colony growth; − = no growth; * = microcolonies; details: streaked dishes, 37° C. for 24 hours
From the text: (§1) Study of the growth of meticillin-resistant S. aureus strains on CHROMagar Staph aureus medium (available from the company CHROMagar, 4, Place du 18 Juin 1940, 75006 Paris France): • AR4295 MetiS: meticillin-sensitive strain • AR4297 MetiR: (homogeneous) meticillin-resistant strain • MRhet: (heterogeneous) meticillin-resistant strain • Z252: meticillin-resistant strain, homogeneous, low level of resistance
(§2) Petri dishes are inoculated with bacterial cultures by streaking the dishes, in order to observe the growth of isolated bacteria, after incubation at 37° C. for 24 hours.
(§3) The bacteria that grow give purple colonies on the culture medium, confirming that the microorganisms are Staphylococcus aureus.

[2] = test system: AR4295 MetiS: meticillin-sensitive strain; assay: Growth of S. aureus strains streaked on CHROMagar Staph aureus medium with antibiotic: meticillin-sensitive strain; assay type: cell-based, Staphylococcus aureus; design: key: + = colony growth; − = no growth; * = microcolonies; details: streaked dishes, 37° C. for 24 hours
From the text: as §1, §2, §3

[3] = Stability of the detection medium prepared with the antibiotic; assay type: physicochemical; details: added when the medium is at 48° C.
Method: For example, a stability of at least 2 months has been observed for a medium in accordance with the invention prepared with cefoxitin at a concentration of 5 mg/l, added to the medium when the latter is at a temperature of 48° C. The stability of the medium in accordance with the invention has been brought to at least 5 months when said medium has been prepared with cefmetazole at a concentration of 2.5 mg/l, added to the medium when the latter is at a temperature of 48° C.
The expression “stability of the medium” is intended to denote the ability of the medium in accordance with the invention to allow the selective detection of meticillin-resistant microorganisms, in particular staphylococcus aureus, for a given period of time, with the same reliability throughout the period of time.

[4] = test system: AR4297 MetiR: (homogeneous) meticillin-resistant strain; assay: Growth of S. aureus strains streaked on CHROMagar Staph aureus medium with antibiotic: homogeneous meticillin-resistant strain; assay type: cell-based, Staphylococcus aureus; design: key: + = colony growth; − = no growth; * = microcolonies; details: CHROMagar Staph aureus + Cefoxitin 5 mg/l; streaked dishes, 37° C. for 24 hours
From the text: as §1, §2, §3

[5] = test system: MRhet: (heterogeneous) meticillin-resistant strain; assay: Growth of S. aureus strains streaked on CHROMagar Staph aureus medium with antibiotic: heterogeneous meticillin-resistant strain; assay type: cell-based, Staphylococcus aureus; design: key: + = colony growth; − = no growth; * = microcolonies; details: streaked dishes, 37° C. for 24 hours
From the text: as §1, §2, §3

[6] = Conservation of antibiotic activity on heating; assay type: physicochemical; details: temperature of greater than 100° C.; resistance verified by the inventors at 121° C.
Method: (its resistance having even been verified by the inventors at 121° C.).

[7] = CHROMagar Staph aureus + Cefoxitin 5 mg/l
[8] = CHROMagar Staph aureus + oxacillin 6 mg/ml

- stability of the medium ([3]; medium prepared with cefoxitin at 5 mg/l): at least 2 months
Structure (SMILES): CO[C@@]1(NC(=O)Cc2cccs2)C(=O)N2C(C(=O)O)=C(COC(N)=O)CS[C@@H]21 [Cefoxitin, cefoxitin]
- colony growth, Z252 [1, 7]: +
- colony growth, AR4295 MetiS [2, 7]: −
- colony growth, AR4297 MetiR [4]: +
- colony growth, MRhet [5, 7]: +

- stability of the medium ([3]; medium prepared with cefmetazole at 2.5 mg/l): at least 5 months
Structure (SMILES): CO[C@@]1(NC(=O)CSCC#N)C(=O)N2C(C(=O)O)=C(CSc3nnnn3C)CS[C@@H]21 [cefmetazole]

- ability to conserve antibiotic activity on heating [6]: conserve its antibiotic activity
Structure (SMILES): CO[C@@]1(NC(=O)CSC(F)F)C(=O)N2C(C(=O)O)=C(CSc3nnnn3CCO)CO[C@@H]21 [flomoxef]

Structure (SMILES): Cc1onc(-c2ccccc2)c1C(=O)N[C@@H]1C(=O)N2[C@@H]1SC(C)(C)[C@@H]2C(=O)O [oxacillin]
- colony growth, Z252 [1, 8]: −
- colony growth, AR4295 MetiS [2, 8]: −
- colony growth, MRhet [5, 8]: −

Reference: patent US7632657B2, “Method of detecting meticillin-resistant microorganisms” (priority 2002, dated 2009)
